How the values were obtained:
Type in all cases: in vivo
barnyardgrass [1] = assay: Test Example 1: herbicidal effects in preemergence treatment under submerged conditions; details: dose 2.52 g/a
How it was run: (§1)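 Scoring 0 (<5% mortality) to 5 (≥90%) was done three weeks after preemergence application to the water surface of submerged (4 cm) alluvial soil, doses given as g per are. Weeds were seeded and 2.5-leaf rice transplanted on the treatment day; greenhouse at 25–30 °C.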

bulrush [2] = assay: as above; details: dose 2.52 g/a
How it was run: as §1

ducksalad [3] = assay: as above; details: dose 2.52 g/a
How it was run: as §1

transplanted rice = assay: Test Example 1: preemergence treatment under submerged conditions, effect on crop; details: dose 2.52 g/a
How it was run: as §1

barnyardgrass [4] = assay: Test Example 2: herbicidal effects during the vegetation period under submerged conditions; details: treatment during the vegetation period under submerged conditions; dose 2.52 g/a
How it was run: (§2)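 Barnyardgrass, bulrush and ducksalad were co-sown in alluvial soil flooded to 4 cm and grown in a greenhouse at 25 to 30° C. At the 1- or 2-leaf stage, water-diluted emulsifiable concentrates went onto the water surface at set doses (g/a). Herbicidal effect was scored three weeks later on a graded scale.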

bulrush [5] = assay: as above; details: treatment during the vegetation period under submerged conditions; dose 2.52 g/a
How it was run: as §2

ducksalad [6] = assay: as above; details: treatment during the vegetation period under submerged conditions; dose 2.52 g/a
How it was run: as §2

Italian ryegrass [7] = assay: Test Example 3: herbicidal effects in soil treatment; details: dose 3.2 g/a
How it was run: (§3)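 Seeds were sown in sterilized diluvial soil and covered with about 1.5 cm of soil. Compounds, formulated as emulsifiable concentrates and diluted with water, were sprayed evenly over the soil surface at set doses in g/a. Herbicidal effect was scored on a rating scale three weeks later.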

barnyardgrass [8] = assay: as above; details: dose 3.2 g/a
How it was run: as §3

common chickweed [9] = assay: as above; details: dose 3.2 g/a
How it was run: as §3

common lambsquater [10] = assay: as above; details: dose 3.2 g/a
How it was run: as §3

common ragweed [11] = assay: as above; details: dose 3.2 g/a
How it was run: as §3

giant foxtail [12] = assay: as above; details: dose 3.2 g/a
How it was run: as §3

large crabgrass [13] = assay: as above; details: dose 3.2 g/a
How it was run: as §3

posumbu knotweed [14] = assay: as above; details: dose 3.2 g/a
How it was run: as §3

redroot pigweed [15] = assay: as above; details: dose 3.2 g/a
How it was run: as §3

velvetleaf [16] = assay: as above; details: dose 3.2 g/a
How it was run: as §3

water foxtail [17] = assay: as above; details: dose 3.2 g/a
How it was run: as §3

Italian ryegrass [18] = assay: Test Example 4: herbicidal effect in foliage treatment; details: dose 3.2 g/a, three weeks after application
How it was run: (§4)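 Seeds sown in sterilized diluvial soil under ~1.5 cm soil cover and grown 14 days in a greenhouse at 25 to 30° C. Emulsifiable concentrates diluted with water were then sprayed uniformly on foliage at predetermined doses (g/a). Herbicidal effect was scored three weeks after application on a graded evaluation scale.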

barnyardgrass [19] = assay: as above; details: dose 3.2 g/a, three weeks after application
How it was run: as §4

beadstraw = assay: as above; details: dose 3.2 g/a, three weeks after application
How it was run: as §4

common chickweed [20] = assay: as above; details: dose 3.2 g/a, three weeks after application
How it was run: as §4

common lambsquater [21] = assay: as above; details: dose 3.2 g/a, three weeks after application
How it was run: as §4

common ragweed [22] = assay: as above; details: dose 3.2 g/a, three weeks after application
How it was run: as §4

giant foxtail [23] = assay: as above; details: dose 3.2 g/a, three weeks after application
How it was run: as §4

large crabgrass [24] = assay: as above; details: dose 3.2 g/a, three weeks after application
How it was run: as §4

posumbu knotweed [25] = assay: as above; details: dose 3.2 g/a, three weeks after application
How it was run: as §4

redroot pigweed [26] = assay: as above; details: dose 3.2 g/a, three weeks after application
How it was run: as §4

velvetleaf [27] = assay: as above; details: dose 3.2 g/a, three weeks after application
How it was run: as §4

water foxtail [28] = assay: as above; details: dose 3.2 g/a, three weeks after application
How it was run: as §4

CCC1(C)CC(=O)N(Cc2ccccc2NS(=O)(=O)C(F)(F)F)CO1 (stereo not drawn) [II-40]
A: barnyardgrass, herbicidal effect (evaluation scale 0-5) (barnyardgrass [1]): 5 (mortality of 90% or above (nearly complete death)) | B: bulrush, herbicidal effect (evaluation scale 0-5) (bulrush [2]): 5 (mortality of 90% or above (nearly complete death)) | C: ducksalad, herbicidal effect (evaluation scale 0-5) (ducksalad [3]): 5 (mortality of 90% or above (nearly complete death)) | a: transplanted rice, effect on crop (evaluation scale 0-5) (transplanted rice): 0 (mortality of less than 5% (almost ineffective)) | A: barnyardgrass, herbicidal effect (evaluation scale 0-5) (barnyardgrass [4]): 4 (mortality of at least 70% and less than 90%) | B: bulrush, herbicidal effect (evaluation scale 0-5) (bulrush [5]): 5 (mortality of 90% or above (nearly complete death)) | C: ducksalad, herbicidal effect (evaluation scale 0-5) (ducksalad [6]): 5 (mortality of 90% or above (nearly complete death)) | H: Italian ryegrass, herbicidal effect (evaluation scale 0-5) (Italian ryegrass [7]): 5 (mortality of 90% or above (nearly complete death)) | A: barnyardgrass, herbicidal effect (evaluation scale 0-5) (barnyardgrass [8]): 5 (mortality of 90% or above (nearly complete death)) | N: common chickweed, herbicidal effect (evaluation scale 0-5) (common chickweed [9]): 5 (mortality of 90% or above (nearly complete death)) | L: common lambsquater, herbicidal effect (evaluation scale 0-5) (common lambsquater [10]): 0 (mortality of less than 5% (almost ineffective)) | J: common ragweed, herbicidal effect (evaluation scale 0-5) (common ragweed [11]): 5 (mortality of 90% or above (nearly complete death)) | E: giant foxtail, herbicidal effect (evaluation scale 0-5) (giant foxtail [12]): 5 (mortality of 90% or above (nearly complete death)) | D: large crabgrass, herbicidal effect (evaluation scale 0-5) (large crabgrass [13]): 5 (mortality of 90% or above (nearly complete death)) | M: posumbu knotweed, herbicidal effect (evaluation scale 0-5) (posumbu knotweed [14]): 4 (mortality of at least 70% and less than 90%) | K: redroot pigweed, herbicidal effect (evaluation scale 0-5) (redroot pigweed [15]): 4 (mortality of at least 70% and less than 90%) | I: velvetleaf, herbicidal effect (evaluation scale 0-5) (velvetleaf [16]): 5 (mortality of 90% or above (nearly complete death)) | G: water foxtail, herbicidal effect (evaluation scale 0-5) (water foxtail [17]): 5 (mortality of 90% or above (nearly complete death)) | H: Italian ryegrass, herbicidal effect (Italian ryegrass [18]): 5 (mortality of 90% or above (nearly complete death)) | A: barnyardgrass, herbicidal effect (barnyardgrass [19]): 5 (mortality of 90% or above (nearly complete death)) | O: beadstraw, herbicidal effect (beadstraw): 3 (mortality of at least 40% and less than 70%) | N: common chickweed, herbicidal effect (common chickweed [20]): 4 (mortality of at least 70% and less than 90%) | L: common lambsquater, herbicidal effect (common lambsquater [21]): 4 (mortality of at least 70% and less than 90%) | J: common ragweed, herbicidal effect (common ragweed [22]): 4 (mortality of at least 70% and less than 90%) | E: giant foxtail, herbicidal effect (giant foxtail [23]): 4 (mortality of at least 70% and less than 90%) | D: large crabgrass, herbicidal effect (large crabgrass [24]): 3 (mortality of at least 40% and less than 70%) | M: posumbu knotweed, herbicidal effect (posumbu knotweed [25]): 0 (mortality of less than 5% (almost ineffective)) | K: redroot pigweed, herbicidal effect (redroot pigweed [26]): 0 (mortality of less than 5% (almost ineffective)) | I: velvetleaf, herbicidal effect (velvetleaf [27]): 5 (mortality of 90% or above (nearly complete death)) | G: water foxtail, herbicidal effect (water foxtail [28]): 5 (mortality of 90% or above (nearly complete death))
